Data reported in paper PMC5715351, “Cysteine and histidine residues are involved in Escherichia coli Tn21 MerE methylmercury transport” (FEBS Open Bio, 2017).

Molecular target: MerE (Shigella flexneri, UniProt Q7AKA4)
Conditions: 5 uM compound, LB broth with 100 ug/mL chloramphenicol and 100 uM EDTA, 37 °C

Chain of MerE (Q7AKA4 whole entry): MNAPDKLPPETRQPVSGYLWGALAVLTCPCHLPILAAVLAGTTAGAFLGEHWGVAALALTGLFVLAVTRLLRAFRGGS

For `[CH3][Hg][Cl]` [CH3Hg(I)], the “uptake of 14C-labelled compound by E. coli XL1-Blue cells, filtration and scinti” value was “cells with pE4 took up significantly more CH3Hg(I) than control cells”.
